From patent US7176231B2, “Aryl-containing 5-acylindolinones, the preparation thereof and their use as medicaments” (Boehringer Ingelheim International GmbH, priority 2004, dated 2007)

What was measured:
[1] = system: mice; test: Tolerability after oral administration to mice; format: in vivo; settings: oral administration of 10 mg/kg to mice
[2] = system: db/db mice; test: Oral glucose tolerance test; format: in vivo; settings: fasted db/db mice, 2 g/kg glucose orally 30 minutes after substance
Procedure: Fasted db/db mice 7 to 9 weeks old (Janvier, France) are weighed and blood is taken from the tip of the tail. This blood is used for the first measurement of glucose on the basis of which the animals are randomised and divided into groups. The test substance to be tested may be given either orally or i.p. as a suspension in 0.5% Natrosol. 30 minutes after the administration of the substance the animals are given orally 2 g/kg glucose in a volume of 0.1 ml/100 g body weight dissolved in NaCl solution. Subsequently, the glucose values are determined from the tail blood using a glucometer (Ultra OneTouch, Lifescan) at specific time intervals [30, 60, 120 and 180 minutes after oral administration of the glucose].

CC(=O)c1ccc2c(c1)/C(=C(/Nc1ccc(CN(C)C)cc1)c1ccc3c(c1)OCCO3)C(=O)N2 [Example 1.051, 5-acetyl-3-{[4-(dimethylamino-methyl)-phenylamino]-(2,3-dihydro-benzo[1,4]-dioxin-6-yl)-methylidene}-2-indolinone]
changes in the animals' behaviour [1]: no changes were observed
activity in the oral glucose tolerance test [2]: significant activity
